The text below walks through data of patent US10080739B2, “Aryl imidazoles and their use as anti-cancer agents” (Aptose Biosciences Inc., priority 2003, dated 2018).

Each structure is given as a SMILES string.

Assay [1] deals with human non-small cell lung cancer cells (H460). As to the kind of experiment: XTT cell proliferation assay, H460 cells, 48 h. As to conditions: NCI-H460, 48 h, read-out: % Survival. Format: cell-based. As to the method:
Selected compounds of Formula I were tested for anti-cancer activity in vitro using a human colon carcinoma cells (HT-29) and human non-small cell lung cancer cells (H460). The cells were maintained in α-MEM medium (Wisent, St-Bruno, Qc) supplemented with 10% FBS, and grown at 37° C. in an atmosphere of 5% CO2. Cells were transferred onto 150 mm tissue culture plates and grown until sub-confluency (70-80%) prior to their use.
The anti-cancer activity in vitro was evaluated by a cell proliferation assay based on the ability of live cells to reduce the tetrazolium salt XTT to orange coloured compounds of formazan (XTT cell proliferation kit II, Roche Applied Science, Montreal, QC).
Approximately 4×10^3 colon cancer cells (HT-29) or 2×10^3 non-small cell lung cancer cells (NCI-H460) in 100 μl of complete culture medium were plated onto 96-well microtiter plates and incubated overnight at 37° C. The medium was then removed by inverting the plate and patting on a sterile absorbent cloth. Fifty μl of medium containing the test compound at either 25 or 100 μM, were added to the wells containing cells and incubated at 37° C. in an atmosphere of 5% CO2 for 48 h. Following incubation, 25 μl of an XTT reaction mixture (XTT at a final concentration of 0.3 mg/ml) were added to each well and the plates were incubated for a further 4 h. The absorbance of each sample was then determined at a wavelength of 490 nm/650 nm as reference. Each compound was tested in duplicate and the results are reported as averages.

The next assay deals with leukemia cell lines. Kind of assay: NCI/DTP screen, leukemia cell lines. It counts as cell-based, human. As for the experimental part: The twenty-three compounds of Formula I shown below were evaluated for their antiproliferative effects in a panel of 60 human cancer cell lines as part of the in vitro anticancer screening services provided by the DTP (Developmental Therapeutics Program) of the US National Cancer Institute (NCI) U.S. National Cancer Institute (NCI) of the National Institutes of Health (NIH) in […], Md.
The NCI conducts a standard 48/72 hour 60 cell line assay and an in vitro time course assay as described in Alley et al. (Cancer Res (1988) 48:589). In the standard 60 cell line assay, a minimum of 5 concentrations of the test compound are tested at 10-fold dilutions against 60 cell lines and cell growth is assayed at 48 and 72 hours using a sulphorhodamine B assay. For the time course analysis, tumour cells are treated with the test compound at various time points, then washed and grown in medium free of the test compound until the end of the experiment at 144 hrs. This assay employs 20% FBS to better approximate the minimum c×t (concentrations and times) test compound exposure conditions that are required to achieve activity in vivo. Cell growth is quantified by an MTT assay (similar to the XTT assay described above) and the concentration of the test compound required for growth inhibition is determined. […]

The target in a further assay is T1, Abl (Homo sapiens, UniProt P00519).
T1 construct: purchased Upstate Biotechnologies (kinase profiler service)
Kind of assay: kinase profiler, Abl. It counts as biochemical. The following applies: 10 μM compound, 100 μM ATP, mean of % control. As to the method:
(§1) Compound 45 was tested for its ability to function as a kinase inhibitor using the kinase profiler service from Upstate Biotechnologies. The general protocol employed is as follows: recombinant kinases were incubated with specific substrates, 10 mM MgAcetate, and [γ-^33P-ATP]. The reaction was initiated by the addition of MgATP mix. After incubation at room temperature for 40 minutes, the reaction was stopped by the addition of 5 μl of a 3% phosphoric acid solution. 10 μl of the reaction was then spotted on to a P30 filtermat and washed 3 times for 5 min. in 75 mM phosphoric acid and once in methanol prior to drying and scintillation counting. Each reaction was performed in duplicate with 100 μM ATP −/+10 μM compound 45. Results are presented in Table IV and are expressed as the mean of % control (no compound). PI 3-kinase-γ (PI3K-γ) activity was determined with the PIProfiler™ assay, which measures the binding of the GRP1 pleckstrin homology (PH) domain to PIP3, the product of PI3K acting on its physiological substrate PIP2.

Another assay deals with T2, Aurora-A (Homo sapiens, UniProt O14965).
T2 construct: purchased Upstate Biotechnologies (kinase profiler service)
As to the kind of experiment: kinase profiler, Aurora-A. Format: biochemical. The following applies: 10 μM compound, 100 μM ATP, mean of % control. As to the method:
as §1

The next assay has as its target T3, CDK2/cyclinA (Homo sapiens, UniProt P24941).
T3 construct: purchased Upstate Biotechnologies (kinase profiler service)
As to the kind of experiment: kinase profiler, CDK2/cyclinA. As to conditions: 10 μM compound, 100 μM ATP, mean of % control. Format: biochemical. As for the experimental part:
as §1

The target of the next assay is T4, CDK2/cyclinE (Homo sapiens, UniProt P24941).
T4 construct: purchased Upstate Biotechnologies (kinase profiler service)
Kind of assay: kinase profiler, CDK2/cyclinE. It counts as biochemical. As to conditions: 10 μM compound, 100 μM ATP, mean of % control. As for the experimental part: as §1

For the next assay, the target named is T5, Fyn (Homo sapiens, UniProt P06241).
T5 construct: purchased Upstate Biotechnologies (kinase profiler service)
Kind of assay: kinase profiler, Fyn. It counts as biochemical. As to conditions: 10 μM compound, 100 μM ATP, mean of % control. As for the experimental part: as §1

The next assay has as its target T6, IKKα (Homo sapiens, UniProt O15111).
T6 construct: purchased Upstate Biotechnologies (kinase profiler service)
As to the kind of experiment: kinase profiler, IKKα. It counts as biochemical. The following applies: 10 μM compound, 100 μM ATP, mean of % control. As for the experimental part: as §1

For the next assay, the target named is T7, JNK1α1 (Homo sapiens, UniProt P45983).
T7 construct: purchased Upstate Biotechnologies (kinase profiler service)
Kind of assay: kinase profiler, JNK1α1. It counts as biochemical. The following applies: 10 μM compound, 100 μM ATP, mean of % control. As for the experimental part: as §1

The target of a further assay is T8, NEK2 (Homo sapiens, UniProt P51955).
T8 construct: purchased Upstate Biotechnologies (kinase profiler service)
Kind of assay: kinase profiler, NEK2. It counts as biochemical. The following applies: 10 μM compound, 100 μM ATP, mean of % control. As to the method:
as §1

For the next assay, the system named is p70S6K. Kind of assay: kinase profiler, p70S6K. Format: biochemical, human. The following applies: 10 μM compound, 100 μM ATP, mean of % control. As to the method: as §1
A further assay concerns the target T9, PKA (Homo sapiens, UniProt P17612).
T9 construct: purchased Upstate Biotechnologies (kinase profiler service)
Kind of assay: kinase profiler, PKA. As to conditions: 10 μM compound, 100 μM ATP, mean of % control. It counts as biochemical. As for the experimental part: as §1

In a further assay the target is T10, PKBα (Homo sapiens, UniProt P31749).
T10 construct: purchased Upstate Biotechnologies (kinase profiler service)
Kind of assay: kinase profiler, PKBα. Format: biochemical. The following applies: 10 μM compound, 100 μM ATP, mean of % control. As for the experimental part:
as §1

The target of the next assay is T11, PKCμ (Homo sapiens, UniProt Q15139).
T11 construct: purchased Upstate Biotechnologies (kinase profiler service)
As to the kind of experiment: kinase profiler, PKCμ. It counts as biochemical. As to conditions: 10 μM compound, 100 μM ATP, mean of % control. As to the method:
as §1

A further assay concerns the target T12, PKD2 (Homo sapiens, UniProt Q9BZL6).
T12 construct: purchased Upstate Biotechnologies (kinase profiler service)
As to the kind of experiment: kinase profiler, PKD2. The following applies: 10 μM compound, 100 μM ATP, mean of % control. Format: biochemical. As to the method: as §1

Another assay addresses T13, Plk3 (Homo sapiens, UniProt Q9H4B4).
T13 construct: purchased Upstate Biotechnologies (kinase profiler service)
As to the kind of experiment: kinase profiler, Plk3. It counts as biochemical. The following applies: 10 μM compound, 100 μM ATP, mean of % control. As to the method:
as §1

The next assay deals with T14, Ret (Homo sapiens, UniProt P07949).
T14 construct: purchased Upstate Biotechnologies (kinase profiler service)
Kind of assay: kinase profiler, Ret. It counts as biochemical. The following applies: 10 μM compound, 100 μM ATP, mean of % control. As for the experimental part:
as §1

Another assay has as its target T15, ROCK-II (Homo sapiens, UniProt O75116).
T15 construct: purchased Upstate Biotechnologies (kinase profiler service)
As to the kind of experiment: kinase profiler, ROCK-II. Format: biochemical. The following applies: 10 μM compound, 100 μM ATP, mean of % control. As for the experimental part: as §1

The target of another assay is T16, Ros (Homo sapiens, UniProt P08922).
T16 construct: purchased Upstate Biotechnologies (kinase profiler service)
Kind of assay: kinase profiler, Ros. It counts as biochemical. As to conditions: 10 μM compound, 100 μM ATP, mean of % control. As for the experimental part: as §1

Another assay concerns the target T17, SGK (Homo sapiens, UniProt O00141).
T17 construct: purchased Upstate Biotechnologies (kinase profiler service)
As to the kind of experiment: kinase profiler, SGK. The following applies: 10 μM compound, 100 μM ATP, mean of % control. It counts as biochemical. As to the method:
as §1

T8 sequence (P51955 whole entry): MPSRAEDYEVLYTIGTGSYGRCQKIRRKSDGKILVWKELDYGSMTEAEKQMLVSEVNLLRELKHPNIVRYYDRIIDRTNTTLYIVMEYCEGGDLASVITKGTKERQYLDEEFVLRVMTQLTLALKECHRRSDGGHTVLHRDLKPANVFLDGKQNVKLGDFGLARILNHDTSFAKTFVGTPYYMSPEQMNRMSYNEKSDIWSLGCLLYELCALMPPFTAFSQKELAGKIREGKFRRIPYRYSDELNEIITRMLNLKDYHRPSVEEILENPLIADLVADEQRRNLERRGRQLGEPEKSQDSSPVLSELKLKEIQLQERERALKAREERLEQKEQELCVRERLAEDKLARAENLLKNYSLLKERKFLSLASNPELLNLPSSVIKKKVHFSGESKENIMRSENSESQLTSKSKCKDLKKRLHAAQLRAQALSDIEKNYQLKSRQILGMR
T11 sequence (Q15139 whole entry): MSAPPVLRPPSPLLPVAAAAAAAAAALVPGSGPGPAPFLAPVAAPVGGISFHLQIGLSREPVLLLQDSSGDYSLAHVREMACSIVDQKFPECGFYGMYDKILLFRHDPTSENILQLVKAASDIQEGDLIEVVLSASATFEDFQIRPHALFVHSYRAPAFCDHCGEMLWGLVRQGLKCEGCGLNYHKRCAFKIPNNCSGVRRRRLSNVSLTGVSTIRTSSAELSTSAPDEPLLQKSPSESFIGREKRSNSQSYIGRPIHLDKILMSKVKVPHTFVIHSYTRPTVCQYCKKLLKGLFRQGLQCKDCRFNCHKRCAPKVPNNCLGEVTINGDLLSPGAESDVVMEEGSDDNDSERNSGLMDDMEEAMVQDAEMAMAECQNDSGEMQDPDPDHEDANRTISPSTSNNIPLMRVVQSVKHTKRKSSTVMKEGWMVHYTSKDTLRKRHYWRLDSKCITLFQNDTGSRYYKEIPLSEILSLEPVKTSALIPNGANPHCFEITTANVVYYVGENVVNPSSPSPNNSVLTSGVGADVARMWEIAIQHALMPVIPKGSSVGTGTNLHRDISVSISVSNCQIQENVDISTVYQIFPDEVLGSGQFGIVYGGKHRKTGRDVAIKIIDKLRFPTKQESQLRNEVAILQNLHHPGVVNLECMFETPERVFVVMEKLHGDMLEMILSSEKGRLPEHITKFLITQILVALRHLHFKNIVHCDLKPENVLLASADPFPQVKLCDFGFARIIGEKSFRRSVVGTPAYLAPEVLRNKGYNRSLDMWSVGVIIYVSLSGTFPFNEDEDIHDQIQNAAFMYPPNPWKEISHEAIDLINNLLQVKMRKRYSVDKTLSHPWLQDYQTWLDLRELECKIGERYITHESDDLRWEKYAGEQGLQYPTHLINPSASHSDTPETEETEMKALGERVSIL
T13 sequence (Q9H4B4 whole entry): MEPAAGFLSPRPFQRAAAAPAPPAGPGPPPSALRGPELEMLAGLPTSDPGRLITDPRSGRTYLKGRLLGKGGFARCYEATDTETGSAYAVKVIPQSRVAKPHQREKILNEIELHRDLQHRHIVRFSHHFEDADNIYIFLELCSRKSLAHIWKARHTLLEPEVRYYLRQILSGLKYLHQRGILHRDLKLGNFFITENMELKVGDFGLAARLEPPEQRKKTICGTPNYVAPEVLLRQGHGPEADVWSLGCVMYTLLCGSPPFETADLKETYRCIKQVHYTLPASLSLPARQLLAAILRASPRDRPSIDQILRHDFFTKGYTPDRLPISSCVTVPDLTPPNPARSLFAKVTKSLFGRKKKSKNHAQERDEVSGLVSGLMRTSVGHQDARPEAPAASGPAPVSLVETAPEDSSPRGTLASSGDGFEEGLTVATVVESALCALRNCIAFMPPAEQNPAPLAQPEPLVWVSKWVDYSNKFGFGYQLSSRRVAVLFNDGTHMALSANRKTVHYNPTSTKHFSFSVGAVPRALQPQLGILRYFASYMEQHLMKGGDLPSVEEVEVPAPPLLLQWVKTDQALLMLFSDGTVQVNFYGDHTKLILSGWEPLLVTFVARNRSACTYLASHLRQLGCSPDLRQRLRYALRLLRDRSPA
T15 sequence (O75116 whole entry): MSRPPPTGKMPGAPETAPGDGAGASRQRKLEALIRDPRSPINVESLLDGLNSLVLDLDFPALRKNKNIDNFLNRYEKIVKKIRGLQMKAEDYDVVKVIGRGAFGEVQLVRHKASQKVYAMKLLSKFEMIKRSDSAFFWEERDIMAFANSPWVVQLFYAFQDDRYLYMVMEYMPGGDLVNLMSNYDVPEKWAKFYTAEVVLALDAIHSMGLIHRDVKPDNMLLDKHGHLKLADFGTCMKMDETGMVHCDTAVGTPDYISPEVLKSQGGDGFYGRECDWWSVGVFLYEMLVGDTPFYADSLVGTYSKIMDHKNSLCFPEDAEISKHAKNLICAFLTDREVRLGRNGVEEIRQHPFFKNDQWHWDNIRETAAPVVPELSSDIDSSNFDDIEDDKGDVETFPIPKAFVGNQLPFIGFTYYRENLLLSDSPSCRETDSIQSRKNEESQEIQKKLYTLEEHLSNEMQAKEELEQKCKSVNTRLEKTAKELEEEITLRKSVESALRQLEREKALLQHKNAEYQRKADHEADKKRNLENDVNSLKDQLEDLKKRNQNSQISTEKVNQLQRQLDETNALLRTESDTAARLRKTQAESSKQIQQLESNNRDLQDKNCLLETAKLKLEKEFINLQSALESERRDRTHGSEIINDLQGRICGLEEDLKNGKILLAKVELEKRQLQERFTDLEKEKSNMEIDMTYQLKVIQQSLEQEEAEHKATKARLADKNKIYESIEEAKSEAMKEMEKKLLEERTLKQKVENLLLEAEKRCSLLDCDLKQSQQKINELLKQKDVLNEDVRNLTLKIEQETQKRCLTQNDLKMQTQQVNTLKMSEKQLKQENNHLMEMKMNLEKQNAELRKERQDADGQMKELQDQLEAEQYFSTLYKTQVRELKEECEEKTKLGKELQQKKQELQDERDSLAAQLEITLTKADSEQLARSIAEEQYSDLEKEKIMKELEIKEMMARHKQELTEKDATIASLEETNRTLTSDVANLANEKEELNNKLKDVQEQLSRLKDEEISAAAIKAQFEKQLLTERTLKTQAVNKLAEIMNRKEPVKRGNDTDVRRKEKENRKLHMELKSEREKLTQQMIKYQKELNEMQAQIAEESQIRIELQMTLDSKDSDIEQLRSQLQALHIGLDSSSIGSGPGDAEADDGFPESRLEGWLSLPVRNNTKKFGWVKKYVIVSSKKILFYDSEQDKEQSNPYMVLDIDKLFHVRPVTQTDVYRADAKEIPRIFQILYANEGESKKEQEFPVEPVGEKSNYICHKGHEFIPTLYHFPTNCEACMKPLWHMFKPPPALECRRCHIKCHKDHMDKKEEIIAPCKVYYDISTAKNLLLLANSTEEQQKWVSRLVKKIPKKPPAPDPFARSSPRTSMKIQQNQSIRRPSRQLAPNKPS
T6 sequence (O15111 whole entry): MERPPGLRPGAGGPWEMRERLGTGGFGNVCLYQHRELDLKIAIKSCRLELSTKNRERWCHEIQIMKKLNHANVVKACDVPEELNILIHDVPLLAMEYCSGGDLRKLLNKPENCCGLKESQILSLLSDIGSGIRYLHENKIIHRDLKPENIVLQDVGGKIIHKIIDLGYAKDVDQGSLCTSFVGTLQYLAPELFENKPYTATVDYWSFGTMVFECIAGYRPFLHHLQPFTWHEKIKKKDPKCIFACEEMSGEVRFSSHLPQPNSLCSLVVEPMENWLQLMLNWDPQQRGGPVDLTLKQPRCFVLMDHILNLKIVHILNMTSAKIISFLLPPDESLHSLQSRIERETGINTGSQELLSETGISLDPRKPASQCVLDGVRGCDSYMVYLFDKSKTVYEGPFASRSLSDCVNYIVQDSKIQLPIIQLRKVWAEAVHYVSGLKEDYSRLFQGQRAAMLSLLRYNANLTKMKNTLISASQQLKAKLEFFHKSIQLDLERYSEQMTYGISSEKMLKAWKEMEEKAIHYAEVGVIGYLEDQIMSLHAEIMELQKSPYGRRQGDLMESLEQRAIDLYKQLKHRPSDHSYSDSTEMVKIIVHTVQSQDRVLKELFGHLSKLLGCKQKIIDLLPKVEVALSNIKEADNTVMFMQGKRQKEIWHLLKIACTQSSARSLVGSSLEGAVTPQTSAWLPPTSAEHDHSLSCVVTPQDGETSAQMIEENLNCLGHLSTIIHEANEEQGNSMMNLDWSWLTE
T17 sequence (O00141 whole entry): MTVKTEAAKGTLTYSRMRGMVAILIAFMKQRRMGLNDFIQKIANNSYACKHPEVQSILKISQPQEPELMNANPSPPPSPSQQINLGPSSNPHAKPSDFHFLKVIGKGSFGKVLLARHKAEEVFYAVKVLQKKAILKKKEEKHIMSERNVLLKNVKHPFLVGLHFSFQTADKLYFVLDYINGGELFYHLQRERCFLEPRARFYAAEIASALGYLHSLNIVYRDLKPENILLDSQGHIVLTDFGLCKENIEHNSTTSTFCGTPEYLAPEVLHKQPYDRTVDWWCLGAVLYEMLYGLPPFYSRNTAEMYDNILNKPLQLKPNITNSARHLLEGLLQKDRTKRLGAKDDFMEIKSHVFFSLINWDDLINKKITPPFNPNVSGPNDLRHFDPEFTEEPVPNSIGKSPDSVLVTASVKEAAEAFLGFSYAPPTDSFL
T7 sequence (P45983 1-384 isoform P45983-2): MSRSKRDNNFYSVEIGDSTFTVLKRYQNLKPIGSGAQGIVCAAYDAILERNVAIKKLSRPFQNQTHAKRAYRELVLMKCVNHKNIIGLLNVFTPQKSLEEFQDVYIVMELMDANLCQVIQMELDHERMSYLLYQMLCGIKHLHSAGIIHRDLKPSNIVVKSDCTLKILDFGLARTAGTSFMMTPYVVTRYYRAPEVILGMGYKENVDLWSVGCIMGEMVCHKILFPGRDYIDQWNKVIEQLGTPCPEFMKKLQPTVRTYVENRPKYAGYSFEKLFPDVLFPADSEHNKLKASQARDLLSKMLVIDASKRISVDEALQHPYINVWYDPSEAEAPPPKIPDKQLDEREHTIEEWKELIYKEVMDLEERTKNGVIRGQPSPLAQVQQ

As for `Brc1ccc2[nH]cc(-c3nc4c5ccccc5c5ccccc5c4[nH]3)c2c1` [Compound 45], the viability at 25 µM in [1] came to 96%. Besides, in [1], the viability at 100 µM worked out at 32.7%. The GI50 – broadly, the concentration that inhibits growth by half – in the assay on leukemia cell lines (Homo sapiens, leukemia cell lines (FIG. 10B)) is 3.4 µM. The “TGI (total growth inhibition)” value in the assay with leukemia cell lines (leukemia cell lines, 100 μM the highest concentration used (FIG. 10C)) was over 100 µM. Further, the activity at 10 µM was 107% at Abl; 54% on Aurora-A; 95% at CDK2/cyclinA; 117% at CDK2/cyclinE; 103% on Fyn; 150% at IKKα. Further, the activity at 10 µM stood at 85% at JNK1α1; 90% at NEK2; 83% on PKA; 95% at PKBα; 90% on PKCμ; 52% on PKD2. The activity at 10 µM on Plk3 is 132%; at Ret, 82%; on ROCK-II, 86%; at Ros, 107%; at SGK, 89%. For the same compound, in the assay with p70S6K, the “% activity” value stood at 64%.
